Article PMC2533715, “Suppressive Effects of Selected Food Phytochemicals on CD74 Expression in NCI-N87 Gastric Carcinoma Cells” (Journal of Clinical Biochemistry and Nutrition, 2008)

Tests used:
[1] = system: CD74; assay: Cell-based ELISA for constitutive CD74 expression; parameters: species or system human; conditions: 48 h, NCI-N87 cells; for IR (%) inhibition rate of CD74 expression: mean ± average deviation; for IC50: mean of duplicate experiments, unit printed in b25 only, read-out: IC50 (50% inhibitory concentration) for constitutive CD74 expression
[2] = system: cytochrome P450 (CYP) 3A4; parameters: method as in PMID 9548795; conditions: cited from earlier work
[3] = system: CYP1A1; parameters: method as in PMID 15670584; conditions: cited from earlier work
[4] = system: MCF-7 cells; parameters: method as in PMID 12641443; conditions: induced by benzo[a]pyrene and 7,12-dimethylbenz[a]anthracene; cited from earlier work
[5] = system: skin tumors; parameters: method as in PMID 9276625; conditions: mice; cited from earlier work
[6] = system: NO generation; parameters: method as in PMID 10563895; conditions: cited from earlier work
[7] = system: leukemia differentiation; parameters: method as in PMID 10552768; conditions: cited from earlier work
[8] = Cell viability (MTT); conditions: human
[9] = system: H. pylori urease; parameters: method as in PMID 14550260; conditions: in vitro; cited from earlier work
[10] = system: H. pylori-induced gastritis; parameters: method as in PMID 14550260; conditions: Mongolian gerbils; cited from earlier work
[11] = NCI-N87 gastric carcinoma cells

SMILES | IR (%) inhibition rate of CD74 expression ([1]; 4 µM) [%] | IR (%) inhibition rate of CD74 expression ([1]; 20 µM) [%] | IR (%) inhibition rate of CD74 expression ([1]; 20 µM, listed as bergamottin) [%] | Suppression of CD74 expression (in words) [1] | IC50 [1] [µM] | Inhibition of cytochrome P450 (CYP) 3A4 [2] | Inhibition of CYP1A1 [3] | Formation of DNA adducts [4] | Skin tumors [5] | NO generation [6] | Leukemia differentiation [7] | CC50 at 48 h [8, 11] [µM] | viability at 48 h, 4 µM [8, 11] [%] | viability at 48 h, 20 µM [8, 11] [%] | viability at 48 h, 100 µM [8, 11] [%] | IR (%) inhibition rate of CD74 expression ([1]; 100 µM) [%] | H. pylori urease activity [9] | H. pylori-induced gastritis [10] | CC50 at 48 h [8] [µM]
CC(C)=CCC/C(C)=C/COc1c2ccoc2cc2oc(=O)ccc12 [Bergamottin] | 8.6 ± 4.2 | 74 ± 8.2 | 74 | significant activity | 14.2 | inhibit | inhibit | reduced | reduced | reduced | induced | > 100 | 93 | 79 | 59 ± 2.1 | – | – | – | –
O=C(OC1Cc2c(O)cc(O)cc2OC1c1cc(O)c(O)c(O)c1)c1cc(O)c(O)c(O)c1 (single isomer, unassigned; (-)) [EGCG, (−)-epigallocatechin-3-gallate] | −110 ± 8.3 | −149 ± 3.8 | – | did not suppress CD74 expression, but rather enhanced it | > 100 | – | – | – | – | – | – | – | 78 ± 6.3 | 77 ± 3.1 | 78 ± 5 | −217 ± 4.0 | strongly inhibited | suppressed | > 100
